Data taken from publication PMC4042408 (ACS chemical biology, 2013).

Legend:
ABHD6 = target: T1, ABHD6 (Mus musculus, UniProt Q8R2Y0); assay: Gel-based competitive ABPP; format: biochemical
T1 sequence (Q8R2Y0 1-336): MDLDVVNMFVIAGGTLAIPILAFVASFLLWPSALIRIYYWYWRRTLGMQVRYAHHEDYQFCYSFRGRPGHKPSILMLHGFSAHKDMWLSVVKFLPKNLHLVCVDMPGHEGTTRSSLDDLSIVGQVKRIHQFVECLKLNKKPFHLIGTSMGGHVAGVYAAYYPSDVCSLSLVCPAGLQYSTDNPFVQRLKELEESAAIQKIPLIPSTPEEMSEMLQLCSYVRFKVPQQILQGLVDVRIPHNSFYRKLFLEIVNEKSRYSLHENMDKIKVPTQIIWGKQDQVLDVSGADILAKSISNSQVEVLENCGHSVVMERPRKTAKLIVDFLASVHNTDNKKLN

CES1 = target: T2, CES1 (Mus musculus, UniProt Q8VCC2); assay: Gel-based competitive ABPP; format: biochemical
T2 sequence (Q8VCC2 19-565): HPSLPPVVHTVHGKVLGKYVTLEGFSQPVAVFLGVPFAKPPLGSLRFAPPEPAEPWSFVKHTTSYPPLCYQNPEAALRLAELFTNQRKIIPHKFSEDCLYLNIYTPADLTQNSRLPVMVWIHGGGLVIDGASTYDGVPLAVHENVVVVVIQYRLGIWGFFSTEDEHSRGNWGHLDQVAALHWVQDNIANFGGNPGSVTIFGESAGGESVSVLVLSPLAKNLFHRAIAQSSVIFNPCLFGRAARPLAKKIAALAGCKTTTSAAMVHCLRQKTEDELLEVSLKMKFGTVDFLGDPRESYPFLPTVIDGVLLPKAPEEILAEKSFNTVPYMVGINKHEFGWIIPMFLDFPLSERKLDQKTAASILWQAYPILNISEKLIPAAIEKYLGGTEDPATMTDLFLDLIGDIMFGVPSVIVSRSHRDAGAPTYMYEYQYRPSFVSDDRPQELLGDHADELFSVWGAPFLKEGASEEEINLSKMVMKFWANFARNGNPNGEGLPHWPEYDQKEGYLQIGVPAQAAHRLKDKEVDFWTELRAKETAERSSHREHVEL

ABHD3 = target: T3, ABHD3 (Mus musculus, UniProt Q91ZH7); assay: Gel-based competitive ABPP; format: biochemical
T3 sequence (Q91ZH7 1-411): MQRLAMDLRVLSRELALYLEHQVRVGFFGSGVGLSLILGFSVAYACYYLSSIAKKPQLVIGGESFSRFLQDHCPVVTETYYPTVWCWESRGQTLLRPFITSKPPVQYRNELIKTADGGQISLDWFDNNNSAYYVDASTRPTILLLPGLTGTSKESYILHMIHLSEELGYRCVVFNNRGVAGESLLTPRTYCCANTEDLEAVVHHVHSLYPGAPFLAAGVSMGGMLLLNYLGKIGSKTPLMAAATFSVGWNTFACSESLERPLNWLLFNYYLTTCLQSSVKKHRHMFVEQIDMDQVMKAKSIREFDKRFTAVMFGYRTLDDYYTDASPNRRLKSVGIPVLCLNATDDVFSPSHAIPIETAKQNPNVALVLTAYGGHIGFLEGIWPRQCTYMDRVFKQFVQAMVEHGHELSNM

HSL = target: T4, HSL (Mus musculus, UniProt P54310); assay: Gel-based competitive ABPP; format: biochemical
T4 sequence (P54310 1-759): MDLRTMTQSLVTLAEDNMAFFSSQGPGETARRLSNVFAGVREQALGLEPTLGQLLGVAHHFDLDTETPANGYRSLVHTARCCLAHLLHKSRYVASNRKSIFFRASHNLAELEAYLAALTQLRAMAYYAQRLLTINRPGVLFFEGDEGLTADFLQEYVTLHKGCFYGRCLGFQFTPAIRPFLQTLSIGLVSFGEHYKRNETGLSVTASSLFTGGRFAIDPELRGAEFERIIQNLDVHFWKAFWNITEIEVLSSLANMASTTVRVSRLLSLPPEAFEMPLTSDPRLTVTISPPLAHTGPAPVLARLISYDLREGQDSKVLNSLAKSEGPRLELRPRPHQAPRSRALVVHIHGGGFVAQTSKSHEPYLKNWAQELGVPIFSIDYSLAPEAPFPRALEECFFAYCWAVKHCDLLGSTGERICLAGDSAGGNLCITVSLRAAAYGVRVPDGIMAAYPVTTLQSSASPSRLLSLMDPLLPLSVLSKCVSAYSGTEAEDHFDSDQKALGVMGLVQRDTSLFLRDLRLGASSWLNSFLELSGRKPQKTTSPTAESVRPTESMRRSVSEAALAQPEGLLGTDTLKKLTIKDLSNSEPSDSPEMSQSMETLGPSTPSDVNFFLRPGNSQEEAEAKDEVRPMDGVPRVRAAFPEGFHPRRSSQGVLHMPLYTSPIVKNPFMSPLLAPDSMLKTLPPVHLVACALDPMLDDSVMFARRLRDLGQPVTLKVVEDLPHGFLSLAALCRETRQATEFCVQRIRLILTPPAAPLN

KIAA1363 = target: T5, KIAA1363 (Mus musculus, UniProt Q8BLF1); assay: Gel-based competitive ABPP; format: biochemical
T5 sequence (Q8BLF1 1-408): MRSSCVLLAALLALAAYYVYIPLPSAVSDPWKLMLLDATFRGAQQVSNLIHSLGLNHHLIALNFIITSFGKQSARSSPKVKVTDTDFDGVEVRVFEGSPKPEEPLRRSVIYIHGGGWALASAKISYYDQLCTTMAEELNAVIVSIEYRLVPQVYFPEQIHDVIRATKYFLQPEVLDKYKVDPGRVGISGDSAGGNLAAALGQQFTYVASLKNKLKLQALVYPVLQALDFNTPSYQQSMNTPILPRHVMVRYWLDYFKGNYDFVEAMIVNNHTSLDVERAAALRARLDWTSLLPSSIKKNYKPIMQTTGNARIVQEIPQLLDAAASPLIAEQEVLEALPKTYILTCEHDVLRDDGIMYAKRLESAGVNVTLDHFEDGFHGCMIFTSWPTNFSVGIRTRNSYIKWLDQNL

CES2 = assay: Gel-based competitive ABPP; format: biochemical
APEH = target: T6, APEH (Mus musculus, UniProt Q8R146); assay: Gel-based competitive ABPP; format: biochemical; conditions: mouse brain proteome
T6 sequence (Q8R146 1-732): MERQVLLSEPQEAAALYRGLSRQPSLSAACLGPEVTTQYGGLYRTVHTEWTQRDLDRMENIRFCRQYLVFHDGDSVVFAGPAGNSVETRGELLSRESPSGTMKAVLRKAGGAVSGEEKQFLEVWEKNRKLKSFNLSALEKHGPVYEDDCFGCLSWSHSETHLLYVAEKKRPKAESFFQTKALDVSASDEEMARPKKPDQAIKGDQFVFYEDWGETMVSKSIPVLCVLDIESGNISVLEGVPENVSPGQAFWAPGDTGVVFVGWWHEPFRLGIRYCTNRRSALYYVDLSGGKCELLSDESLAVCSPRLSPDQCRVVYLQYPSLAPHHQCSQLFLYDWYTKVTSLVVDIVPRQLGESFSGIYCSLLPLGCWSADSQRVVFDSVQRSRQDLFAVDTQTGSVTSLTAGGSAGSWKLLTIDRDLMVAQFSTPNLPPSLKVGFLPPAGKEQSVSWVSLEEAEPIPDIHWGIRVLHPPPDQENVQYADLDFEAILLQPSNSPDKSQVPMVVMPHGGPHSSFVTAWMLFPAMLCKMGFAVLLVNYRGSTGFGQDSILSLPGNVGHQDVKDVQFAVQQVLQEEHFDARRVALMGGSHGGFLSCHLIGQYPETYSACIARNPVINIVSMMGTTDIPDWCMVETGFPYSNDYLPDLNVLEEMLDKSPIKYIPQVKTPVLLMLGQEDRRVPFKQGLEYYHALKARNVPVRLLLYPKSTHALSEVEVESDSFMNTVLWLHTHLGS

CES3 = target: T7, CES3 (Mus musculus, UniProt Q8VCT4); assay: Gel-based competitive ABPP; format: biochemical
T7 sequence (Q8VCT4 19-565): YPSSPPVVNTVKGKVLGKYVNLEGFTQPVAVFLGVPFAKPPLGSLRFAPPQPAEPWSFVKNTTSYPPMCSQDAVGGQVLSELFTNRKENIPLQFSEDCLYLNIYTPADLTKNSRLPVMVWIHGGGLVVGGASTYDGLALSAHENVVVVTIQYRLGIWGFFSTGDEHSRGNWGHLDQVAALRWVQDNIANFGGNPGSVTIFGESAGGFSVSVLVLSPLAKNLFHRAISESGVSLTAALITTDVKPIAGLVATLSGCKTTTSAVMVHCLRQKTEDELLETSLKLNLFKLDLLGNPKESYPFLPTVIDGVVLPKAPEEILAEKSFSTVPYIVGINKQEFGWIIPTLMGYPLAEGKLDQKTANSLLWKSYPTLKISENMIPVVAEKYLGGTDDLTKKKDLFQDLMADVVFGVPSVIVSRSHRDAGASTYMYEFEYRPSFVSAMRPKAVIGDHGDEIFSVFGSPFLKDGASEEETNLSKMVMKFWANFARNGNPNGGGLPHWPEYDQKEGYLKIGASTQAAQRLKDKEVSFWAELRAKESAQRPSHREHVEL

[1] = system: C20:4 LPA hydrolytic activity of mouse brain proteomes; format: biochemical; conditions: inhibitor 1 μM, 30 min, 37°C
serine hydrolases = assay: Competitive ABPP-MudPIT of brain and peripheral tissues; format: in vivo, mouse

CCOP(=O)(OCC)Oc1nc(Cl)c(Cl)cc1Cl [CPO, chlorpyrifos-oxon]
IC50 compared to that of ACHE (ABHD6): equivalent or lower | IC50 compared to that of ACHE (CES1): equivalent or lower | IC50 compared to that of ACHE (ABHD3): comparable | IC50 compared to that of ACHE (HSL): equivalent or lower | IC50 compared to that of ACHE (KIAA1363): comparable | IC50 compared to that of ACHE (CES2): equivalent or lower | IC50 compared to that of ACHE (APEH): equivalent or lower | IC50 compared to that of ACHE (CES3): comparable

O=C(Oc1ccc([N+](=O)[O-])cc1)N1CCC(C(O)(c2ccc3c(c2)OCO3)c2ccc3c(c2)OCO3)CC1 [JZL184]
C20:4 LPA hydrolytic activity (C20:4 FFA release) [1]: inhibits

O=C(Oc1ccc([N+](=O)[O-])cc1)N1CCN(Cc2cccc(Oc3ccccc3)c2)CC1 [JZL195]
C20:4 LPA hydrolytic activity (C20:4 FFA release) [1]: inhibits

CCOP(=S)(OCC)Oc1nc(Cl)c(Cl)cc1Cl [CPF, chlorpyrifos]
additional serine hydrolases not found in the brain (AADAC, CES1, CES1F, CES2, CES2B, CES2G, CES3, CES5, CES6, ES22, BChE) in peripheral tissues (serine hydrolases; CPF-treated mice, peripheral tissues): blocked | total number of metabolic serine hydrolases inhibited in vivo (serine hydrolases; mice, brain and peripheral tissues, CPF 50 mg/kg ip, 4 h): twenty-one
